# Laboratory results as given in patent publication US4032529A, “Aminomethanobenzazocine intermediates” (Sterling Drug Inc., priority 1975, dated 1977).
# Structures can show the parent of a compound that is named as a salt.
# Test system: acetylcholine-induced writhing in mice
# Assay: acetylcholine writhing test, a primary screening test for analgesia
# Format: in vivo
# Conditions: Mus musculus, sc, 20 min; subcutaneous; mice dosed 20 minutes prior to acetylcholine 3.2 mg./kg. intraperitoneal; 2-minute observation; probit analysis
# Experimental: All of the compounds of Formula I of the examples were tested and determined to be active in the acetylcholine writhing test, a primary screening test for analgesia. In this test the ability of test compounds to prevent acetylcholine-induced writhing in mice is determined. The following is an adaptation of the method of Collier and co-workers (Brit. J. Pharmacol. Chemother., 32, 295(1968)) by Anne K. Pierson. […] The mice are dosed with the test compound plus vehicle or vehicle alone (controls) 20 minutes prior to, and are observed for 2 minutes after, the acetylchloine injection. During the 2-minute observation period mice not responding by writhing are scored protected and mice responding by writhing one or more times are scored not protected. The mice are dosed orally (usually at 150-200 mg./kg.) or subcutaneously (usually at 75-100 mg./kg.). Fifteen mice per does level are used. ED50 values for active compounds are calculated by probit analysis (C. I. Bliss, The Statistics of Bioassay, Academic Press, New York, 1952) of quantal scores of tests at four or more appropriate dose levels. The following subcutaneous ED50 values for the compounds of Formula I of the examples were determined.
row,SMILES,ED50 [mg/kg]
1,"C[C@@H]1[C@@H]2Cc3ccc(N)cc3[C@@]1(C)CCN2CC1CC1 (relative stereo) [Example 1B, 8-amino-3-(cyclopropylmethyl)-1,2,3,4,5,6-hexahydro-cis-6,11-dimethyl-2,6-methano-3-benzazocine dihydrochloride]",0.8
2,"C[C@@H]1[C@@H]2Cc3ccc(NCC4CC4)cc3[C@@]1(C)CCN2CC1CC1 (relative stereo) [Example 2E, 3-(cyclopropylmethyl)-8-(cyclopropylmethylamino)-1,2,3,4,5,6-hexahydro-cis-6,11-dimethyl-2,6-methano-3-benzazocine hydrochloride]",0.7
3,"CNc1ccc2c(c1)[C@@]1(C)CCN(CC3CC3)[C@@H](C2)[C@H]1C (relative stereo) [Example 3B, 3-(cyclopropylmethyl)-1,2,3,4,5,6-hexahydro-cis-6,11-dimethyl-8-(methylamino)-2,6-methano-3-benzazocine dihydrochloride ethanolate hydrate]",0.44
4,"C[C@@H]1[C@@H]2Cc3ccc(N(C)C)cc3[C@@]1(C)CCN2CC1CC1 (relative stereo) [Example 4F, 3-cyclopropylmethyl-8-dimethylamino-cis-6,11-dimethyl-1,2,3,4,5,6-hexahydro-2,6-methano-3-benzazocine dihydrochloride]",0.79
5,"CC(C)CN1CC[C@]2(C)c3cc(N)ccc3C[C@H]1[C@H]2C (relative stereo) [Example 5C, 8-amino-1,2,3,4,5,6-hexahydro-3-isobutyl-cis-6,11-dimethyl-2,6-methano-3-benzazocine dihydrochloride]",1.5
6,"CCCN1CC[C@]2(C)c3cc(N)ccc3C[C@H]1[C@H]2C (relative stereo) [Example 6C, 8-amino-cis-6,11-dimethyl-1,2,3,4,5,6-hexahydro-3-propyl-2,6-methano-3-benzazocine dihydrochloride sesquihydrate]",5.6
7,"C[C@@H]1[C@@H]2Cc3ccc(NCc4ccccc4)cc3[C@@]1(C)CCN2CC1CC1 (relative stereo) [Example 7, 3-(cyclopropylmethyl)-1,2,3,4,5,6-hexahydro-cis-6,11-dimethyl-8-benzylamino-2,6-methano-3-benzazocine dihydrochloride]",1.6
8,"C=CCN1CC[C@]2(C)c3cc(N)ccc3C[C@H]1[C@H]2C (relative stereo) [Example 8C, 8-amino-1,2,3,4,5,6-hexahydro-cis-6,11-dimethyl-3-(2-propenyl)-2,6-methano-3-benzazocine dihydrochloride]",2.5
9,"CCNc1ccc2c(c1)[C@@]1(C)CCN(CC3CC3)[C@@H](C2)[C@H]1C (relative stereo) [Example 9B, 3-(cyclopropylmethyl)-8-(ethylamino)-1,2,3,4,5,6-hexahydro-cis-6,11-dimethyl-2,6-methano-3-benzazocine]",1.3
10,"CCCNc1ccc2c(c1)[C@@]1(C)CCN(CC3CC3)[C@@H](C2)[C@H]1C (relative stereo) [Example 10B, 3-(cyclopropylmethyl)-1,2,3,4,5,6-hexahydro-cis-6,11-dimethyl-8-(propylamino)-2,6-methano-3-benzazocine]",1.2
11,"CCCCNc1ccc2c(c1)[C@@]1(C)CCN(CC3CC3)[C@@H](C2)[C@H]1C (relative stereo) [Example 11B, 8-(butylamino)-3-(cyclopropylmethyl)-1,2,3,4,5,6-hexahydro-cis-6,11-dimethyl-2,6-methano-3-benzazocine]",1
12,"CC[C@@H]1[C@@H]2Cc3ccc(N)cc3[C@@]1(CC)CCN2CC1CC1 (relative stereo) [Example 12H, 8-amino-3-(cyclopropylmethyl)-cis-6,11-diethyl-1,2,3,4,5,6-hexahydro-2,6-methano-3-benzazocine dihydrochloride]",1.3
